From US11760758B2 (The Trustees of Columbia University in the City of New York, priority 2018, dated 2023)
Like-named read-outs stand apart in the source and are kept apart here.

Legend:
human MOR [1] = molecular target: T1, human MOR (Homo sapiens, UniProt P35372); assay: BRET functional assay for G protein activation at hMOR; assay type: cell-based; conditions: for Agonist activity at hMOR (in words): compared to DAMGO
T1 construct: host or cells: HEK-293T

human MOR [2] = molecular target: T1, human MOR; conditions: Kruegel, et al. 2016; cited from earlier work
mouse KOR = molecular target: T2, mouse KOR (Mus musculus, UniProt P33534); assay: Radioligand competition binding ([125I]BNtxA), CHO membranes, KOR; conditions: for Ki: mean +/- SE, n = 3, CHO transfected with mouse opioid receptors
T2 construct: expressed in transfected cells; membranes

mouse MOR [3] = molecular target: T3, mouse MOR (Mus musculus, UniProt P42866); assay: cAMP sensor CAMYEL functional assay at mMOR; assay type: cell-based; design: host or cells: HEK-293T; conditions: for Agonist activity at mMOR (in words): mMOR CAMYEL assay
mouse MOR [4] = molecular target: T3, mouse MOR; assay: Radioligand competition binding ([125I]BNtxA), CHO membranes, MOR; conditions: for Ki: mean +/- SE, n = 3, CHO transfected with mouse opioid receptors
mouse DOR = molecular target: T4, mouse DOR (Mus musculus, UniProt P32300); assay: Radioligand competition binding ([125I]BNtxA), CHO membranes, DOR; conditions: for Ki: mean +/- SE, n = 3, CHO transfected with mouse opioid receptors
T4 construct: expressed in transfected cells; membranes

[5] = Table 2, MG-EG series, hMOR G protein BRET, normalized to DAMGO Emax = 100%
[6] = Table 1, mitragynine series, hMOR G protein BRET, normalized to DAMGO Emax = 100%
[7] = EC50 (nM), Table 1, mitragynine series, hMOR G protein BRET, 95% confidence limits in brackets
[8] = Table 3, 7-OH series, hMOR G protein BRET, normalized to DAMGO Emax = 100%

| SMILES | Emax (human MOR [1]; [5]) | Agonist activity at hMOR (in words) (human MOR [1]; hMOR G protein BRET) | Emax (human MOR [1]; [6]) | Ki (mouse KOR) | Emax (human MOR [1]; [8]) | Emax (mouse MOR [3]) | Ki (mouse MOR [4]) | Ki (mouse DOR) | other results |
| --- | --- | --- | --- | --- | --- | --- | --- | --- | --- |
| CC[C@@H]1CN2CC[C@@]34OCCO[C@@]3(Nc3cccc(OC)c34)[C@@H]2C[C@@H]1/C(=C\OC)C(=O)OC [Compound 1, mitragynine-ethylene glycol adduct, reference compound] | 56.2% | partial agonist | – | – | – | – | – | – | EC50 (human MOR [1]; EC50 (nM), Table 2, MG-EG series, hMOR G protein BRET, 95% confidence limits in brackets): 14.8 nM |
| CC[C@@H]1CN2CC[C@@]34OCCO[C@@]3(Nc3cc(F)cc(OC)c34)[C@@H]2C[C@@H]1/C(=C\OC)C(=O)OC [Compound 2, 11-Fluoromitragynine-ethylene glycol adduct] | < 20% | negligible agonist activity | – | – | – | – | – | – | – |
| CC[C@@H]1CN2CC[C@@]34OCCO[C@@]3(Nc3cc(Cl)cc(OC)c34)[C@@H]2C[C@@H]1/C(=C\OC)C(=O)OC [Compound 3, C11-Chloromitragynine-ethylene glycol adduct] | < 20% | negligible agonist activity | – | – | – | – | – | – | – |
| CC[C@@H]1CN2CC[C@@]34OCCO[C@@]3(Nc3cc(Br)cc(OC)c34)[C@@H]2C[C@@H]1/C(=C\OC)C(=O)OC [Compound 4, 11-bromo-MG-EG] | < 20% | negligible agonist activity | – | – | – | – | – | – | – |
| CC[C@@H]1CN2CC[C@@]34OCCO[C@@]3(Nc3cc(O)cc(OC)c34)[C@@H]2C[C@@H]1/C(=C\OC)C(=O)OC [Compound 6, 11-hydroxy-MG-EG] | – | – | – | – | – | – | – | – | EC50 (human MOR [1]): 11.3 nM; Emax (human MOR [1]): 67.4% |
| CC[C@@H]1CN2CCc3c([nH]c4cccc(OC)c34)[C@@H]2C[C@@H]1/C(=C\OC)C(=O)OC [Compound 12, mitragynine, reference compound] | – | – | 26.5% | – | – | – | – | – | Agonist activity at hMOR (in words), previously shown (human MOR [2]): partial agonist |
| CC[C@@H]1CN2CCc3c([nH]c4cc(F)cc(OC)c34)[C@@H]2C[C@@H]1/C(=C\OC)C(=O)OC [Compound 13, 11-fluoro-MG] | – | – | 49% | – | – | – | – | – | EC50 (human MOR [1]; [7]): 81.5 nM |
| CC[C@@H]1CN2CCc3c([nH]c4cc(Cl)cc(OC)c34)[C@@H]2CC1/C(=C\OC)C(=O)OC (stereo partly shown) [Compound 14, 11-Chloromitragynine] | – | – | 33.4% | – | – | – | – | – | EC50 (human MOR [1]; [7]): 327 nM |
| CC[C@@H]1CN2CCc3c([nH]c4cc(Br)cc(OC)c34)[C@@H]2C[C@@H]1/C(=C\OC)C(=O)OC [Compound 15, 11-bromo-MG] | – | no/negligible agonist activity | < 20% | – | – | – | – | – | – |
| CC[C@@H]1CN2CC[C@@]3(O)C(=Nc4cccc(OC)c43)[C@@H]2C[C@@H]1/C(=C\OC)C(=O)OC [Compound 23, 7-hydroxymitragynine, reference compound] | – | – | – | 119 ± 2.14 nM | 88% | 92.4% | 21.4 ± 0.81 nM | 88.5 ± 9.86 nM | EC50 (mouse MOR [3]): 13 nM |
| CC[C@@H]1CN2CC[C@@]3(O)C(=Nc4cc(F)cc(OC)c43)[C@@H]2C[C@@H]1/C(=C\OC)C(=O)OC [Compound 24, 11-Fluoro-7-hydroxymitragynine] | – | – | – | 21 ± 3.26 nM | 47% | 63.8% | 13.7 ± 1.01 nM | 35.8 ± 2.01 nM | Affinity at KOR relative to parent compound 23 (mouse KOR; ratio of affinity vs 7-OH (23)): six times greater; EC50 (human MOR [1]; EC50 (nM), Table 3, 7-OH series, hMOR G protein BRET, 95% confidence limits in brackets): 3.98 nM; EC50 (mouse MOR [3]; Table 5, 7-OH series, mMOR CAMYEL cAMP assay, 95% confidence limits in brackets, read-out: EC50): 15.1 nM; Gain in affinity at mMOR relative to parent 7-OH, 23 (mouse MOR [4]; ratio of affinity vs 7-OH (23)): approximately 2 fold; Affinity for DOR relative to 7-OH, 23 (mouse DOR; ratio of affinity vs 7-OH (23)): > 2 fold |
| CC[C@@H]1CN2CC[C@@]3(O)C(=Nc4cc(Cl)cc(OC)c43)[C@@H]2C[C@@H]1/C(=C\OC)C(=O)OC [Compound 25, 11-chloro-7-OH] | – | agonist activity was abolished | – | 30.6 ± 11.3 nM | < 20% | < 20% | 27.1 ± 1.12 nM | 47.2 ± 2.36 nM | Agonist activity at mMOR (in words) (mouse MOR [3]): not agonists |
| CC[C@@H]1CN2CC[C@@]3(O)C(=Nc4cc(Br)cc(OC)c43)[C@@H]2C[C@@H]1/C(=C\OC)C(=O)OC [Compound 26, 11-bromo-7-OH] | – | agonist activity was abolished | – | 81.1 ± 7.11 nM | < 20% | < 20% | 32.4 ± 1.42 nM | 57.7 ± 6.66 nM | Agonist activity at mMOR (in words) (mouse MOR [3]): not agonists |
